# Measurements: patent US8288382B2, “Diaminothiazoles useful as Axl inhibitors” (Rigel Pharmaceuticals, Inc., priority 2006, dated 2012)
# Target: T1, Axl (Homo sapiens, UniProt P30530)
# T1 construct: endogenous in cells; host or cells: HeLa cells
# T1 sequence (P30530 26-894): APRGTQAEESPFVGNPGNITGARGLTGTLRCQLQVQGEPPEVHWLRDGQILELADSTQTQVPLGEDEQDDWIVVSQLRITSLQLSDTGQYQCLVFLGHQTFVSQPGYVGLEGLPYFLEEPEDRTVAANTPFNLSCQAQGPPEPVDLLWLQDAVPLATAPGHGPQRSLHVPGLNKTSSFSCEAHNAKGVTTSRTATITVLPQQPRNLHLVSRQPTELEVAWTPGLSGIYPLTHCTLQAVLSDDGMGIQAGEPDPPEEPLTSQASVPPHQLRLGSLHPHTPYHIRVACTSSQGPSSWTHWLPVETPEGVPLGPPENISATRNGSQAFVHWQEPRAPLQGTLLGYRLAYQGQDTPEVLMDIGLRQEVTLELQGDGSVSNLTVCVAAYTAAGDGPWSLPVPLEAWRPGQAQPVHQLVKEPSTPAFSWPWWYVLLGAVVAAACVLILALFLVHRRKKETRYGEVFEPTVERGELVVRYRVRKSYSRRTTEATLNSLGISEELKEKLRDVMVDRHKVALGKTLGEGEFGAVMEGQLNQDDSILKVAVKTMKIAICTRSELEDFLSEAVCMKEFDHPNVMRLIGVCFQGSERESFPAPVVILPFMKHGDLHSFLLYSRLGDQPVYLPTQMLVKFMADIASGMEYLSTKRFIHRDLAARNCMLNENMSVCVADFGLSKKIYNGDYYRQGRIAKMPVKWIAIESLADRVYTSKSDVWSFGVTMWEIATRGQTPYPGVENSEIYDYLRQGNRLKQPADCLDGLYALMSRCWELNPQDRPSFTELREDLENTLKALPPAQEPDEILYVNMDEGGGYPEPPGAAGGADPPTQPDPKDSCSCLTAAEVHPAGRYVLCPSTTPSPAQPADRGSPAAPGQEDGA
# Test: Phospho-Akt In-Cell Western Assay (inhibition of Axl activity)
# Format: cell-based
# Conditions: Hela cells, stimulated by Axl-antibody cross-linking, phospho-Akt chemiluminescence normalized to relative cell number
# Method: The compounds of the invention were tested in the following assay for their ability to inhibit Axl activity.
# Phospho-Akt In-Cell Western Assay
# • Cell culture plate: 96 well assay plate (Corning 3610), white, clear bottom, tissue-culture treated. • Cells: Hela cells. • Starvation medium: For Axl stimulation: 0.5% FCS (fetal calf serum) in DMEM, plus Axl/Fc (extracellular domain of AXL fused to imunoglobulin Fc region) (R&D, 154-AL) 500 ng/mL. • For EGF (epidermal growth factor) stimulation: 0.5% FCS in DMEM (Dulbecco's modified Eagles medium). • Poly-L-Lysine 0.01% solution (the working solution): 10 μg/ml, dilute In PBS (phosphate buffered saline). • Axl antibody cross-linking: • 1st: Mouse anti-Axl (R&D, MAB154). • 2nd: Biotin-SP-conjugated AffiniPure goat anti-mouse IgG (H+L) (Jackson ImmunoResearch #115-065-003). • Fixing buffer: 4% formaldehyde in PBS. • Wash buffer: 0.1% TritonX-100 in PBS. • Quenching buffer: 3% H2O2, 0.1% Azide in wash buffer, Azide and hydrogen peroxide (H2O2) are added fresh. • Blocking buffer: 5% BSA in TBST (tris buffered saline plus 0.1% Tween 20). • Primary antibody: Rabbit anti-human Phospho-Akt antibody (Cell Signaling 9271): 1×250 diluted in blocking buffer. • Secondary antibody: HRP (horse radish peroxidase)-conjugated Goat anti-Rabbit secondary, stock solution: Jackson ImmunoResearch (Goat anti-Rabbit HRP, #111-035-144) 1:1 diluted in glycerol, store at −20° C. The working solution: 1×2000 dilution of stock in blocking buffer. • Chemiluminescent working solution (Pierce, 37030): SuperSignal ELISA (enzyme linked immunosorbant assay) Pico Chemiluminescent substrate. • Crystal Violet solution: Stock: 2.5% Crystal violet in methanol, filtered and kept at ambient temperature. The working solution: dilute the stock 1:20 with PBS immediately before use. • 10% SDS: working solution: 5% SDS (sodium dodecylsulfate), diluted in PBS Methods: Day 1:
# A 96 well TC (tissue culture treated) plate was coated with 10 μg/mL poly-L-Lysine at 37° C. for 30 min, washed twice with PBS, and air-dried for 5 minutes before cells were added. Hela cells were seeded at 10,000 cells/well and the cells were starved in 100 μL starvation medium containing Axl/Fc for 24 hrs.
# The cells were pre-treated with test compounds by adding 100 μL of 2× test compound to the starvation medium on the cells. The cells were incubated at 37° C. for 1 hr before stimulation.
# The cells were stimulated by Axl-antibody cross-linking as follows: A 5× 1st/2nd Axl antibody mixture was made (37.5 μg/mL 1st/100 μg/mL 2nd) in starvation medium and nutated at 4° C. with thorough mixing for 1-2 hours for clustering. The resulting mix was warmed to 37° C. 50 μL of 5× Axl 1st/2nd of antibody cluster was added to the cells and the cells were incubated at 37° C. for 5 min.
# After 5 minutes stimulation, the plate was flicked to remove medium and the plate was tapped onto paper towels. Formaldehyde (4.0% in PBS, 100 μL) was added to fix the cells and the cells were incubated at ambient temperature for 20 min without shaking.
# The cells were washed with a plate washer buffer to remove the formaldehyde solution. The plate was flicked to removed excess wash buffer and tapped onto paper towels. Quenching buffer (100 μL) was added to each well and the cells were incubated at ambient temperature for 20 minutes without shaking.
# The cells were washed with a plate washer buffer to remove the quenching buffer. Blocking buffer (100 μL) was added and the cells were incubated at ambient temperature for at least an hour with gentle shaking.
# The cells were washed with a plate washer buffer and diluted primary antibody (50 μL) was added to each well (blocking buffer was added to the negative control wells instead). The plates were incubated overnight at 4° C. with gentle shaking.
# The wash buffer was removed, diluted secondary antibody (100 μL) was added, and the cells were incubated at ambient temperature for 1 hour with gentle shaking. […]
row,IC50,Compound
1,1 to 10 µM,"Nc1nc(Nc2ccc(OCCN3CCCC3)cc2)sc1-c1nc2ccccc2s1 [Compound 9, 5-(benzo[d]thiazol-2-yl)-N^2-(4-(2-(pyrrolidin-1-yl)ethoxy)phenyl)thiazole-2,4-diamine]"
2,> 20 µM,"COc1cc2ncnc(-c3sc(Nc4ccc(N5CCN(C6CC7CCC6C7)CC5)cc4)nc3N)c2cc1OC (centres unmarked) [Compound 13, N^2-(4-(4-(bicyclo[2.2.1]heptan-2-yl)piperazin-1-yl)phenyl)-5-(6,7-dimethoxyquinazolin-4-yl)thiazole-2,4-diamine]"
3,> 20 µM,"COc1cc(Nc2nc(N)c(-c3ncnc4ccccc34)s2)cc(OC)c1OC [Compound 6, 5-(quinazolin-4-yl)-N^2-(3,4,5-trimethoxyphenyl)thiazole-2,4-diamine]"
4,1 to 10 µM,"COc1cc2ncnc(-c3sc(Nc4ccc(N5CCN(C)CC5)cc4)nc3N)c2cc1OC [Compound 11, 5-(6,7-dimethoxyquinazolin-4-yl)-N^2-(4-(4-methylpiperazin-1-yl)phenyl)thiazole-2,4-diamine]"
5,1 to 10 µM,"COc1cc2ncnc(-c3sc(Nc4ccc(OCCN5CCCC5)cc4)nc3N)c2cc1OC [Compound 1, 5-(6,7-dimethoxyquinazolin-4-yl)-N^2-(4-(2-(pyrrolidin-1-yl)ethoxy)phenyl)thiazole-2,4-diamine]"
6,1 to 10 µM,"COc1cc(Nc2nc(N)c(-c3cnc4ccccc4n3)s2)cc(OC)c1OC [Compound 3, 5-(quinoxalin-2-yl)-N^2-(3,4,5-trimethoxyphenyl)thiazole-2,4-diamine]"
7,> 20 µM,"Nc1nc(Nc2ccc(OCCN3CCCC3)cc2)sc1-c1nccc2ccccc12 [Compound 8, 5-(isoquinolin-1-yl)-N^2-(4-(2-(pyrrolidin-1-yl)ethoxy)phenyl)thiazole-2,4-diamine]"
8,1 to 10 µM,"Nc1nc(Nc2ccc(OCCN3CCCC3)cc2)sc1-c1cnc2ccccc2n1 [Compound 4, N^2-(4-(2-(pyrrolidin-1-yl)ethoxy)phenyl)-5-(quinoxalin-2-yl)thiazole-2,4-diamine]"
9,10 to 20 µM,"Nc1nc(Nc2ccc(N3CCOCC3)cc2)sc1-c1nccc2ccccc12 [Compound 7, 5-(isoquinolin-1-yl)-N^2-(4-morpholinophenyl)thiazole-2,4-diamine]"
10,1 to 10 µM,"Nc1nc(Nc2ccc(N3CCN(C4CC5CCC4C5)CC3)cc2)sc1-c1ncnc2ccsc12 (centres unmarked) [Compound 12, N^2-(4-(4-(bicyclo[2.2.1]heptan-2-yl)piperazin-1-yl)phenyl)-5-(thieno[3,2-d]pyrimidin-4-yl)thiazole-2,4-diamine]"
11,> 20 µM,"COc1ccc(Nc2nc(N)c(-c3ccccn3)s2)cc1 [Compound 2, N^2-(4-methoxyphenyl)-5-(pyridin-2-yl)thiazole-2,4-diamine]"
12,1 to 10 µM,"COc1cc2ncnc(-c3sc(Nc4ccc(N5CCOCC5)cc4)nc3N)c2cc1OC [Compound 10, 5-(6,7-dimethoxyquinazolin-4-yl)-N^2-(4-morpholinophenyl)thiazole-2,4-diamine]"
13,1 to 10 µM,"Nc1nc(Nc2ccc(OCCN3CCCC3)cc2)sc1-c1ncnc2ccccc12 [Compound 5, N^2-(4-(2-(pyrrolidin-1-yl)ethoxy)phenyl)-5-(quinazolin-4-yl)thiazole-2,4-diamine]"
14,1 to 10 µM,"COc1cc2ncnc(-c3sc(Nc4ccc(OCCN5CCCC5)c(Cl)c4)nc3N)c2cc1OC [Compound 14, N^2-(3-chloro-4-(2-(pyrrolidin-1-yl)ethoxy)phenyl)-5-(6,7-dimethoxyquinazolin-4-yl)thiazole-2,4-diamine]"
